Among the data in ChEMBL document CHEMBL1140009, “Synthesis, determination of stereochemistry, and evaluation of new bisindole alkaloids from the myxomycete Arcyria ferruginea: an approach for Wnt signal inhibitor” (Bioorg Med Chem Lett, 2007) are Activity values, retold here.

This assay deals with Cancer cell lines. The experiment in a line: Inhibition of Wnt signal in cancer cells by luciferase reporter gene assay. It counts as cell-based. Conditions: Homo sapiens.

`O=C1NC(=O)c2c1c1c3ccc(O)cc3[nH]c1c1[nH]c3cc(O)ccc3c21`: the Activity result is “Dose-dependent effect”.
The result for `O=C1NC(=O)[C@@H](c2c[nH]c3cc(O)ccc23)[C@H]1c1c[nH]c2cc(O)ccc12` reads “Dose-dependent effect”.
